{"source": "ChEMBL document CHEMBL2062415", "about": "“Steroids from Commiphora mukul display antiproliferative effect against human prostate cancer PC3 cells via induction of apoptosis” (Bioorg Med Chem Lett, 2012)", "key": {"K562 [1]": {"system": "K562", "assay": "Induction of apoptosis in human K562 cells assessed as necrotic cells at 1 uM after 48 hrs by annexinV/propidium iodide staining-based FITC analysis (reference value: 1.19%)", "assay_type": "functional"}, "K562 [2]": {"system": "K562", "assay": "Induction of apoptosis in human K562 cells assessed as early apoptotic cells at 10 uM after 48 hrs by annexinV/propidium iodide staining-based FITC analysis (reference value: 2.08%)", "assay_type": "functional"}, "PC-3 [3]": {"system": "PC-3", "assay": "Induction of apoptosis in human PC3 cells assessed as necrotic cells at 20 uM after 48 hrs by annexinV/propidium iodide staining-based FITC analysis relative to control", "assay_type": "functional"}, "K562 [4]": {"system": "K562", "assay": "Induction of apoptosis in human K562 cells assessed as accumulation at G0/G1 phase at 5 uM after 48 hrs by propidium iodide staining-based flow cytometric analysis (reference value: 38.61%)", "assay_type": "functional"}, "MCF7 [5]": {"system": "MCF7", "assay": "Induction of apoptosis in human MCF7 cells assessed as accumulation at S phase at 20 uM after 48 hrs by propidium iodide staining-based flow cytometric analysis (reference value: 22.99%)", "assay_type": "functional"}, "MCF7 [6]": {"system": "MCF7", "assay": "Induction of apoptosis in human MCF7 cells assessed as late apoptotic cells at 20 uM after 48 hrs by annexinV/propidium iodide staining-based FITC analysis (reference value: 3.57%)", "assay_type": "functional"}, "MCF7 [7]": {"system": "MCF7", "assay": "Induction of apoptosis in human MCF7 cells assessed as accumulation at G2/M phase at 5 uM after 48 hrs by propidium iodide staining-based flow cytometric analysis (reference value: 9.55%)", "assay_type": "functional"}, "MCF7 [8]": {"system": "MCF7", "assay": "Induction of apoptosis in human MCF7 cells assessed as late apoptotic cells at 10 uM after 48 hrs by annexinV/propidium iodide staining-based FITC analysis (reference value: 3.57%)", "assay_type": "functional"}, "MCF7 [9]": {"system": "MCF7", "assay": "Induction of apoptosis in human MCF7 cells assessed as early apoptotic cells at 20 uM after 48 hrs by annexinV/propidium iodide staining-based FITC analysis (reference value: 5.48%)", "assay_type": "functional"}, "PC-3 [10]": {"system": "PC-3", "assay": "Inhibition of cyclin B1 protein expression in human PC3 cells at 20 uM after 48 hrs by Western blot analysis", "assay_type": "functional, cell-based"}, "PC-3 [11]": {"system": "PC-3", "assay": "Induction of apoptosis in human PC3 cells assessed as early apoptotic cells at 5 uM after 48 hrs by annexinV/propidium iodide staining-based FITC analysis relative to control", "assay_type": "functional"}, "K562 [12]": {"system": "K562", "assay": "Cytotoxicity against human K562 cells after 24 hrs by MTT assay", "assay_type": "functional, cell-based", "conditions": "K562, 24 h"}, "DU-145 [13]": {"system": "DU-145", "assay": "Induction of apoptosis in human DU145 cells assessed as early apoptotic cells at 10 uM after 48 hrs by annexinV/propidium iodide staining-based FITC analysis (reference value: 2.34%)", "assay_type": "functional"}, "PC-3 [14]": {"system": "PC-3", "assay": "Cell cycle arrest in human PC3 cells assessed as accumulation at S phase at 10 uM after 48 hrs by propidium iodide staining-based flow cytometric analysis relative to control", "assay_type": "functional"}, "PC-3 [15]": {"system": "PC-3", "assay": "Induction of apoptosis in human PC3 cells assessed as necrotic cells at 5 uM after 48 hrs by annexinV/propidium iodide staining-based FITC analysis relative to control", "assay_type": "functional"}, "K562 [16]": {"system": "K562", "assay": "Induction of apoptosis in human K562 cells assessed as necrotic cells at 5 uM after 48 hrs by annexinV/propidium iodide staining-based FITC analysis (reference value: 1.19%)", "assay_type": "functional"}, "DU-145 [17]": {"system": "DU-145", "assay": "Induction of apoptosis in human DU145 cells assessed as necrotic cells at 40 uM after 48 hrs by annexinV/propidium iodide staining-based FITC analysis (reference value: 0.35%)", "assay_type": "functional"}, "MCF7 [18]": {"system": "MCF7", "assay": "Induction of apoptosis in human MCF7 cells assessed as necrotic cells at 10 uM after 48 hrs by annexinV/propidium iodide staining-based FITC analysis (reference value: 8.28%)", "assay_type": "functional"}, "MCF7 [19]": {"system": "MCF7", "assay": "Induction of apoptosis in human MCF7 cells assessed as necrotic cells at 5 uM after 48 hrs by annexinV/propidium iodide staining-based FITC analysis (reference value: 8.28%)", "assay_type": "functional"}, "K562 [20]": {"system": "K562", "assay": "Induction of apoptosis in human K562 cells assessed as necrotic cells at 10 uM after 48 hrs by annexinV/propidium iodide staining-based FITC analysis (reference value: 1.19%)", "assay_type": "functional"}, "PC-3 [21]": {"system": "PC-3", "assay": "Induction of apoptosis in human PC3 cells assessed as early apoptotic cells at 20 uM after 48 hrs by annexinV/propidium iodide staining-based FITC analysis relative to control", "assay_type": "functional"}, "DU-145 [22]": {"system": "DU-145", "assay": "Induction of apoptosis in human DU145 cells assessed as late apoptotic cells at 10 uM after 48 hrs by annexinV/propidium iodide staining-based FITC analysis (reference value: 2.78%)", "assay_type": "functional"}, "PC-3 [23]": {"system": "PC-3", "assay": "Cytotoxicity against human PC3 cells assessed as cell viability at 10 uM after 24 hrs by MTT assay", "assay_type": "functional", "conditions": "PC-3, 24 h, read-out: Activity"}, "K562 [24]": {"system": "K562", "assay": "Induction of apoptosis in human K562 cells assessed as accumulation at S phase at 1 uM after 48 hrs by propidium iodide staining-based flow cytometric analysis (reference value: 45.67%)", "assay_type": "functional"}, "PC-3 [25]": {"system": "PC-3", "assay": "Cell cycle arrest in human PC3 cells assessed as accumulation at S phase at 20 uM after 48 hrs by propidium iodide staining-based flow cytometric analysis relative to control", "assay_type": "functional"}, "K562 [26]": {"system": "K562", "assay": "Induction of apoptosis in human K562 cells assessed as early apoptotic cells at 5 uM after 48 hrs by annexinV/propidium iodide staining-based FITC analysis (reference value: 2.08%)", "assay_type": "functional"}, "DU-145 [27]": {"system": "DU-145", "assay": "Induction of apoptosis in human DU145 cells assessed as accumulation at S phase at 40 uM after 48 hrs by propidium iodide staining-based flow cytometric analysis (reference value: 11.48%)", "assay_type": "functional"}, "DU-145 [28]": {"system": "DU-145", "assay": "Induction of apoptosis in human DU145cells assessed as late apoptotic cells at 20 uM after 48 hrs by annexinV/propidium iodide staining-based FITC analysis (reference value: 2.78%)", "assay_type": "functional"}, "PC-3 [29]": {"system": "PC-3", "assay": "Decrease in Bcl-2 protein level in human PC3 cells at 5 uM after 48 hrs by Western blot analysis", "assay_type": "functional, cell-based"}, "DU-145 [30]": {"system": "DU-145", "assay": "Induction of apoptosis in human DU145 cells assessed as late apoptotic cells at 40 uM after 48 hrs by annexinV/propidium iodide staining-based FITC analysis (reference value: 2.78%)", "assay_type": "functional"}, "DU-145 [31]": {"system": "DU-145", "assay": "Induction of apoptosis in human DU145 cells assessed as accumulation at G2/M phase at 20 uM after 48 hrs by propidium iodide staining-based flow cytometric analysis (reference value: 16.14%)", "assay_type": "functional"}, "K562 [32]": {"system": "K562", "assay": "Induction of apoptosis in human K562 cells assessed as accumulation at G2/M phase at 5 uM after 48 hrs by propidium iodide staining-based flow cytometric analysis (reference value: 15.72%)", "assay_type": "functional"}, "K562 [33]": {"system": "K562", "assay": "Induction of apoptosis in human K562 cells assessed as accumulation at G0/G1 phase at 10 uM after 48 hrs by propidium iodide staining-based flow cytometric analysis (reference value: 38.61%)", "assay_type": "functional"}, "PC-3 [34]": {"system": "PC-3", "assay": "Cell cycle arrest in human PC3 cells assessed as accumulation at G0/G1 phase at 20 uM after 48 hrs by propidium iodide staining-based flow cytometric analysis relative to control", "assay_type": "functional"}, "K562 [35]": {"system": "K562", "assay": "Induction of apoptosis in human K562 cells assessed as early apoptotic cells at 1 uM after 48 hrs by annexinV/propidium iodide staining-based FITC analysis (reference value: 2.08%)", "assay_type": "functional"}, "K562 [36]": {"system": "K562", "assay": "Induction of apoptosis in human K562 cells assessed as late apoptotic cells at 1 uM after 48 hrs by annexinV/propidium iodide staining-based FITC analysis (reference value: 2.55%)", "assay_type": "functional"}}, "note": "The source made the active and inactive calls. The rule behind the calls is not given here.", "data": [{"smiles": "CC[C@H](/C=C/[C@@H](C)[C@H]1CC[C@H]2[C@H]3[C@H]([C@H](O)C[C@]12C)[C@@]1(C)CC[C@H](O)CC1=C[C@H]3O)C(C)C", "values": [{"measurement": "Activity", "setting": "K562 [1]", "result": 0.5, "unit": "%"}, {"measurement": "Activity", "setting": "K562 [2]", "result": 6.1, "unit": "%"}, {"measurement": "Activity", "setting": "PC-3 [3]", "result": 2.79, "unit": "%"}, {"measurement": "Activity", "setting": "K562 [4]", "result": 40.79, "unit": "%"}, {"measurement": "Activity", "setting": "MCF7 [5]", "result": 19.37, "unit": "%"}, {"measurement": "Activity", "setting": "MCF7 [6]", "result": 6.76, "unit": "%"}, {"measurement": "Activity", "setting": "MCF7 [7]", "result": 8.56, "unit": "%"}, {"measurement": "Activity", "setting": "MCF7 [8]", "result": 4.42, "unit": "%"}, {"measurement": "Activity", "setting": "MCF7 [9]", "result": 9.91, "unit": "%"}, {"measurement": "inhibition", "setting": "PC-3 [10]", "result": "Active"}, {"measurement": "Activity", "setting": "PC-3 [11]", "result": 1.05, "unit": "%"}, {"measurement": "IC50", "setting": "K562 [12]", "result": 5.21, "unit": "µM"}, {"measurement": "Activity", "setting": "DU-145 [13]", "result": 4.02, "unit": "%"}, {"measurement": "Activity", "setting": "PC-3 [14]", "result": 23.27, "unit": "%"}, {"measurement": "Activity", "setting": "PC-3 [15]", "result": 1.87, "unit": "%"}, {"measurement": "Activity", "setting": "K562 [16]", "result": 1.59, "unit": "%"}, {"measurement": "Activity", "setting": "DU-145 [17]", "result": 8.01, "unit": "%"}, {"measurement": "Activity", "setting": "MCF7 [18]", "result": 4.47, "unit": "%"}, {"measurement": "Activity", "setting": "MCF7 [19]", "result": 3.47, "unit": "%"}, {"measurement": "Activity", "setting": "K562 [20]", "result": 0.78, "unit": "%"}, {"measurement": "Activity", "setting": "PC-3 [21]", "result": 3.27, "unit": "%"}, {"measurement": "Activity", "setting": "DU-145 [22]", "result": 2.48, "unit": "%"}, {"measurement": "viability at 10 µM", "setting": "PC-3 [23]", "result": 40, "unit": "%"}, {"measurement": "Activity", "setting": "K562 [24]", "result": 45.77, "unit": "%"}, {"measurement": "Activity", "setting": "PC-3 [25]", "result": 14.34, "unit": "%"}, {"measurement": "Activity", "setting": "K562 [26]", "result": 3.77, "unit": "%"}, {"measurement": "Activity", "setting": "DU-145 [27]", "result": 17.68, "unit": "%"}, {"measurement": "Activity", "setting": "DU-145 [28]", "result": 5.73, "unit": "%"}, {"measurement": "inhibition", "setting": "PC-3 [29]", "result": "Active"}, {"measurement": "Activity", "setting": "DU-145 [30]", "result": 13.63, "unit": "%"}, {"measurement": "Activity", "setting": "DU-145 [31]", "result": 20.74, "unit": "%"}, {"measurement": "Activity", "setting": "K562 [32]", "result": 13.71, "unit": "%"}, {"measurement": "Activity", "setting": "K562 [33]", "result": 39.64, "unit": "%"}, {"measurement": "Activity", "setting": "PC-3 [34]", "result": 55.82, "unit": "%"}, {"measurement": "Activity", "setting": "K562 [35]", "result": 1.99, "unit": "%"}, {"measurement": "Activity", "setting": "K562 [36]", "result": 1.79, "unit": "%"}]}]}
